Consider 30 compounds from patent US6846843B2, “β-thioamino acids” (Gruenenthal GmbH, priority 2000, dated 2005).

Usually IC50 stands for the concentration at which inhibition is half-maximal.

Structures can show the parent of a compound that is named as a salt.

For the first test, the target named is gabapentin binding site. Briefly: Gabapentin binding assay (displacement of gabapentin from its binding site). Particulars: displacement of gabapentin; hydrochloride; read-out: Affinity (IC50). Here is the method:
Gabapentin is used in the binding assay in order to determine the binding and affinities of the selected compounds. The affinity of the compounds according to the invention is measured via the displacement of gabapentin from its binding site.
Consider `CCCCCCCC(C)(S)C(N)C(=O)O` (racemic) [Compound 11, rac-erythro-2-amino-3-mercapto-3-methyldecanoic acid hydrochloride], for which the IC50 is 120 nM.

With `CCCCCCC(C)(S)C(N)C(=O)O` (racemic) [Compound 13, rac-erythro-2-amino-3-mercapto-3-methylnonanoic acid hydrochloride], the half-maximal inhibitory concentration (IC50) came to 30 nM.

Turning to `CCCCCC(C)(S)C(N)C(=O)O` (racemic) [Compound 14, rac-threo-2-amino-3-mercapto-3-methyloctanoic acid hydrochloride], the IC50 was 100 nM.

Staying with this test, now noted: displacement of gabapentin; read-out: Affinity (IC50).
For the compound `CCC(C)(S)C(N)C(=O)O` (racemic) [Compound 1, rac-2-amino-3-mercapto-3-methylpentanoic acid hydrochloride], the IC50 amounted to 268 nM.

Regarding `CCCCC(C)(S)C(N)C(=O)O.Cl` (racemic) [Compound 3, rac-2-amino-3-mercapto-3-methylheptanoic acid hydrochloride], the IC50 is 280 nM.

On to `CCC(S)(CC)C(N)C(=O)O` (racemic) [Compound 7, rac-2-amino-3-ethyl-3-mercaptopentanoic acid hydrochloride], for which the IC50 turned out to be 258 nM.

Take `CCCC(S)(CC)C(N)C(=O)O.Cl` (racemic) [Compound 9, rac-amino-3-ethyl-3-mercaptohexanoic acid hydrochloride]: the IC50 amounted to 339 nM.

As to `CCCCCC(C)(SCc1ccccc1)C(N)C(=O)O` (racemic) [Compound 16, rac-threo-2-amino-3-benzylsulfanyl-3-methyl-octanoic acid hydrochloride], the IC50 stood at 1800 nM.

With `CCCC(S)(CCC)C(N)C(=O)O` (racemic) [Compound 17, rac-2-amino-3-mercapto-3-propyl-3-hexanoic acid hydrochloride], the IC50 worked out at 2350 nM.

With `CCCCCCC(C)(SCC)C(N)C(=O)O` (racemic) [Compound 19, rac-2-amino-3-ethylsulfanyl-3-methylnonanoic acid hydrochloride], the IC50 was 271 nM.

`CCCCCCC(C)(SCCC)C(N)C(=O)O` (racemic) [Compound 20, rac-2-amino-3-methyl-3-propylsulfanylnonanoic acid hydrochloride]: the IC50 was 3050 nM.

Take `CCCCCCSC(C)(CCCCCC)C(N)C(=O)O` (racemic) [Compound 21, rac-2-amino-3-hexylsulfanyl-3-methylnonanoic acid hydrochloride]: the IC50 is 12400 nM.

For the compound `CCCCCCC(C)(SCc1ccccc1)C(N)C(=O)O` (racemic) [Compound 22, rac-2-amino-3-benzylsulfanyl-3-methyl-nonanoic acid hydrochloride], the IC50 was found to be 336 nM.

As to `CC(S)(C1CC1)C(N)C(=O)O` (racemic) [Compound 26, rac-2-amino-3-cyclopropyl-3-mercaptobutanoic acid hydrochloride], the IC50 turned out to be 703 nM.

Turning to `CC(S)(C1CCC1)C(N)C(=O)O` (racemic) [Compound 27, rac-2-amino-3-cyclobutyl-3-mercapto-butanoic acid hydrochloride], the IC50 is 589 nM.

Consider `CC(S)(C1CCCCC1)C(N)C(=O)O` (racemic) [Compound 28, rac-2-amino-3-cyclohexyl-3-mercaptobutanoic acid hydrochloride], for which the 50% inhibitory concentration (IC50) was 1320 nM.

Take `CCCCC(S)(CC)C(N)C(=O)O` (racemic) [Compound 30, rac-2-amino-3-ethyl-3-mercaptoheptanoic acid hydrochloride]: the half-inhibitory concentration (IC50) worked out at 314 nM.

With `NC(C(=O)O)C1(S)CCCCC1` (racemic) [Compound 31, rac-amino-(1-mercaptocyclohexyl)ethanoic acid hydrochloride], the IC50 is 187 nM.

`CC1CCCC(S)(C(N)C(=O)O)C1` (racemic) [Compound 32, rac-amino-(1-mercapto-3-methylcyclohexyl)ethanoic acid hydrochloride]: the IC50 amounted to 223 nM.

For the compound `CC1CCCCC1(S)C(N)C(=O)O` (racemic) [Compound 33, rac-amino-(1-mercapto-2-methylcyclohexyl)ethanoic acid hydrochloride], the IC50 amounted to 528 nM.

For `CC1CCC(S)(C(N)C(=O)O)CC1` (racemic) [Compound 34, rac-amino-(1-mercapto-4-methylcyclohexyl)ethanoic acid hydrochloride], the IC50 was 1000 nM.

As for `CCC(C)C(C)(S)C(N)C(=O)O` (racemic) [Compound 37, rac-2-amino-3-mercapto-3,4-dimethylhexanoic acid hydrochloride], the IC50 is 196 nM.

The test is the same for the next values; noted with them: inhibition of gabapentin binding.
With `CCCCC(C)(S)C(N)C(=O)O.Cl` (racemic) [Compound 3, rac-2-amino-3-mercapto-3-methylheptanoic acid hydrochloride], the “% Inhibition (Concn.)” value is reported as 99.7%.

Consider `CCCC(S)(CC)C(N)C(=O)O.Cl` (racemic) [Compound 9, rac-amino-3-ethyl-3-mercaptohexanoic acid hydrochloride], for which the “% Inhibition (Concn.)” value amounted to 97.5%.

Turning to `CCCCCC(C)(SCC)C(N)C(=O)O.Cl` (racemic) [Compound 15, rac-2-amino-3-ethylsulfanyl-3-methyloctanoic acid hydrochloride], the “% Inhibition (Concn.)” value was 92% (10^−5 μm).

Regarding `CCCCCC(C)(SCc1ccccc1)C(N)C(=O)O` (racemic) [Compound 16, rac-threo-2-amino-3-benzylsulfanyl-3-methyl-octanoic acid hydrochloride], the “% Inhibition (Concn.)” value came out at 93%.

In the case of `Cl.NC(C(=O)O)C1(S)CCCCCC1` (racemic) [Compound 18, rac-amino-(1-mercaptocycloheptyl)acetic acid hydrochloride], the “% Inhibition (Concn.)” value is on record as 15% (10^−5 μm).

Regarding `CCCCCCCC(C)(SCc1ccccc1)C(N)C(=O)O.Cl` (racemic) [Compound 23, rac-2-amino-3-benzylsulfanyl-3-methyldecanoic acid hydrochloride], the “% Inhibition (Concn.)” value is 91% (10^−5 μm).

For the compound `CCCCCCCC(C)(SCC)C(N)C(=O)O.Cl` (racemic) [Compound 24, rac-2-amino-3-ethylsulfanyl-3-methyldecanoic acid hydrochloride], the “% Inhibition (Concn.)” value is given as 90% (10^−5 μm).

For `Cl.NC(C(=O)O)C(S)(c1ccc(F)cc1)C1CC1` (racemic) [Compound 25, rac-2-amino-3-cyclopropyl-3-(4-fluorophenyl)-3-mercapto-propionic acid hydrochloride], the “% Inhibition (Concn.)” value is 40% (10^−5 μm).

For the compound `CC(S)(c1cccs1)C(N)C(=O)O.Cl` (racemic) [Compound 29, rac-2-amino-3-mercapto-3-thiophen-2-yl-butanoic acid hydrochloride], the “% Inhibition (Concn.)” value is on record as 30% (10^−5 μm).

On to `Cl.NC(C(=O)O)C1(S)CCSCC1` (racemic) [Compound 35, rac-amino-(4-mercaptotetrahydrothiopyran-4-yl)ethanoic acid hydrochloride], for which the “% Inhibition (Concn.)” value was 84% (10^−5 μm).

Regarding `CC(C)C(C)(S)C(N)C(=O)O.Cl` (racemic) [Compound 36, rac-2-amino-3-mercapto-3,4-dimethylpentanoic acid hydrochloride], the “% Inhibition (Concn.)” value is recorded as 88% (10^−5 μm).
